Data set [1] is described as follows: In vivo metabolic stability in HepG2 tumor-bearing mice. As to conditions: 1 h after intravenous injection. On the procedure: In Vivo Metabolic Stability. HepG2 tumor-bearing mice (n=3/group) were intravenously injected with 5.55 MBq of Al[^18F]F-GP2076 or Al[^18F]F-GP2633. At 1 h after the injection, the mice were euthanized, and the HepG2 tumor, blood, liver, kidneys, and urine samples were collected. Briefly, the blood sample was immediately centrifuged for 5 min at 12,000 rpm. The HepG2 tumor, liver, and kidneys were homogenized and then centrifuged for 5 min at 12,000 rpm. The supernatant from each sample was passed through an ultrafiltration tube (Millipore, USA) and then centrifuged for 10 min at 12,000 rpm. The urine sample was diluted with 100 μl of PBS. The filtrate from each sample was injected into analytic HPLC. The HPLC eluents were collected with a fraction collector (one fraction/30 sec), and the radioactivity of each fraction was measured by gamma counting.

Data set [2] is described as follows: In vitro stability in PBS and mouse serum. It counts as in vitro ADME. The note with it: PBS at room temperature and mouse serum at 37° C., 2 h incubation, HPLC. On the procedure:
In Vitro Stability. The stability of Al[^18F]F-GP2076 or Al[^18F]F-GP2633 was evaluated in PBS and mouse serum. Briefly, 5.55 MBq of Al[^18F]F-GP2076 or Al[^18F]F-GP2633 was incubated with 0.5 ml of PBS at room temperature or mouse serum at 37° C. with gentle shaking. The stability test was carried out at 2 h after the incubation. For the PBS study, an aliquot of the solution was taken, and the radiochemical purity was determined by analytical HPLC. For the mouse serum study, after the addition of TFA, the mixture was passed through a 0.2-μm filter. An aliquot of the soluble fraction was taken, and the radiochemical purity was examined by analytical HPLC.

SMILES strings stand for the structures.

Take `CC(C)C[C@H](NC(=O)[C@H](CCCNC(=N)N)NC(=S)Nc1ccc(CC2CN(CC(=O)O)CCN(CC(=O)O)CCN2CC(=O)O)cc1)C(=O)N[C@@H](CC(N)=O)C(=O)N[C@H](C(=O)NCC(=O)NCC(=O)N[C@H](C(=O)N[C@@H](Cc1ccc(O)cc1)C(=O)N[C@@H](Cc1ccccc1)C(=O)N[C@@H](CC(C)C)C(=O)N[C@H](C(=O)N[C@H](C(=O)N[C@@H](CCCNC(=N)N)C(=O)N[C@@H](CCC(N)=O)C(=O)O)[C@@H](C)O)[C@@H](C)O)[C@@H](C)O)C(C)C` (single isomer, unassigned) [Al[^18F]F-GP2076]: in data set [1], the “percentage of parent F-18 labeled peptide in HepG2 tumor” value is recorded as 97.69±2.51%, the “percentage of parent F-18 labeled peptide in blood” value came to 96.68±1.55%, the “percentage of parent F-18 labeled peptide in kidneys” value is reported as 54.94±2.12% and the “percentage of parent F-18 labeled peptide in liver” value worked out at 96.06±0.54%. Also, in data set [1], the “percentage of parent F-18 labeled peptide in urine” value is recorded as 3.31±0.20%. For the same compound, the “percentage of intact radiotracer (in vitro stability)” value in data set [2] is more than 95%.

Source of the values: patent US20210347709A1, “RADIOFLUORINATED GPC3-BINDING PEPTIDES FOR PET IMAGING OF HEPATOCELLULAR CARCINOMA” (University of Southern California, priority 2020, published 2021).
